The values that follow come from patent US20060128614A1, “Antimicrobial peptides with reduced hemolysis and methods of their use” (priority 2002, published 2006).

≈ marks a conversion by molar mass, not a printed value. Read-outs that look alike come from different tables or passages of the source. Non-standard residues stand in square brackets, D forms with d. Residues, ends and D or L forms follow the SMILES beside them. Bip = N[C@@H](Cc1ccc(-c2ccccc2)cc1)C(=O)O; 1Nal = N[C@@H](Cc1cccc2ccccc12)C(=O)O; 2Nal = N[C@@H](Cc1ccc2ccccc2c1)C(=O)O Bounds are passed on as bounds.

One data set deals with S. aureus. It is filed as cell-based, Staphylococcus aureus. As to the method: (§1) The in vitro antimicrobial activities of antimicrobial agents were tested using standard NCCLS bacterial and fungi inhibition assays or minimum inhibition concentration (MIC) tests. The MIC value is the lowest concentration of peptide at which the visible growth of test organisms was inhibited and reduced. Overnight cultures of the test organisms were diluted to produce an inoculum containing approximately […] in Meuller-Hinton broth (MHB). From the peptide stock solution, serial dilutions of the peptides into […] were prepared and all wells of a 96-well microtiter plate were subsequently inoculated with the diluted culture of the test organisms. After 18 hours of incubation at 37°, the results were assayed for turbidity as an indicator of cell growth. MIC values for the peptides are shown in Table 3 and Table 4 and FIGS. 1(A), 1(B), 1 (C) and 1 (D) show survival rates for Pac-625 and Pac-626.

Another data set deals with E. coli. Type of data set: cell-based, Escherichia coli. Here is the method:
as §1

Data set [1] has as its system human red blood cells (RBC). Type of data set: cell-based. As to the method: Pac-401, Pac-403, Pac-625 and Pac-626 were tested for hemolysis against human red blood cells (RBC). The RBCs with EDTA were rinsed 3 times with PBS (800 g, 10 min) and re-suspended in PBS. The RBCs were diluted into 10% with phosphate-buffered saline and placed […] into each eppendorf. The peptides dissolved in PBS were then added to 50 μl of 10% solution of RBCs and incubated for an hour at 37° C. (final RBC concentration, 5% v/v). The samples were centrifuged at 800 g for 10 min […]. Various concentrations of peptides were incubated with pretreated RBC and the percentage of hemolysis determined.

For data set [2], the system named is outer membrane of E. coli. As to the kind of experiment: NPN uptake assay, outer membrane permeabilization. It is filed as cell-based. To be noted: intact cells of E. coli. As to the method:
The outer membrane permeabilization activity of the peptide variants was determined by the 1-N-phenylnaphthylamine (NPN) uptake assay, using intact cells of E. coli. […] Since NPN is hydrophobic, it provides a direct measurement of the degree of outer membrane permeability. E. coli take up little or no NPN in a general condition. In the presence of permeabilizer compounds (EDTA, polymyxin B, Neomycin, or antimicrobial peptides), NPN partitioned into the bacterial outer membrane results in an increase in fluorescence. Fluorescence will vary with the concentration of peptide.
One ml of overnight culture was used to inoculate 50 ml of media and incubated at 37° C. with shaking. The culture was permitted to grow to an OD600 of 0.4 to 0.6, cells were spun down at 3500 rpm for 10 minutes, washed, and re-suspended in buffer to an OD600 of 0.5. The OD600 was recorded, 1 ml of cells (OD600=0.5) was added to the cuvette and measured after 2-5 seconds. 20 μl NPN 0.5 mM, shaken to mix, was added and measured after 2-5 seconds. 10 ul antibiotic 100× desired final concentration was added, shaken to mix, and measured until the maximal value was reached within 1 to 5 minutes. The concentration of peptide leading to 50% of the maximum increase in NPN uptake was recorded as the P50.

In the case of `CC[C@H](C)[C@@H]1NC(=O)[C@H](Cc2cccc3ccccc23)NC(=O)[C@H](CCCNC(=N)N)NC(=O)[C@H](C(C)C)NC(=O)[C@H](Cc2cccc3ccccc23)NC(=O)[C@H](CCCNC(=N)N)NC(=O)[C@H](CCCNC(=N)N)NC(=O)[C@H](Cc2cccc3ccccc23)NC(=O)[C@H](CCCCN)NC1=O` [Pac-627 C, K (1-Nal) R R (1-Nal) V R (1-Nal) I] (cyclo(K[1Nal]RR[1Nal]VR[1Nal]I); ring closure inferred), in the data set on S. aureus (18 h), the “MIC against S. aureus” value was found to be 64 µg/mL (≈ 45.7 µM). Also, in the data set on E. coli (18 h), the “MIC against E. coli” value stood at 64 µg/mL (≈ 45.7 µM).

`CC[C@H](C)[C@H](NC(=O)[C@H](Cc1ccc2ccccc2c1)NC(=O)[C@H](CCCCN)NC(C)=O)C(=O)N[C@@H](CCCCN)C(=O)N[C@@H](Cc1ccc2ccccc2c1)C(=O)N[C@@H](CCCNC(=N)N)C(N)=O` [Pac-403 L, K (2-Nal) I K (2-Nal) R] (Ac-K[2Nal]IK[2Nal]R-NH2): the “MIC against S. aureus” value in the data set with S. aureus (18 h) was found to be 16 µg/mL (≈ 16.3 µM). In addition, in the data set with E. coli (18 h), the “MIC against E. coli” value is 24 µg/mL (≈ 24.5 µM). Moreover, in data set [1], the “% lysis @ 5 μg/ml” value was found to be 0.74%, the “% lysis @ 50 μg/ml” value is given as 7.2% and the “% lysis @ 500 μg/ml” value is given as 15%.

Take `CC[C@H](C)[C@@H]1NC(=O)[C@H](Cc2ccc3ccccc3c2)NC(=O)[C@H](CCCCN)NC(=O)[C@H](CCCNC(=N)N)NC(=O)[C@H](Cc2ccc3ccccc3c2)NC(=O)[C@H](CCCCN)NC1=O` [Pac-403 C, K (2-Nal) I K (2-Nal) R] (cyclo(K[2Nal]IK[2Nal]R); ring closure inferred): the “MIC against S. aureus” value against S. aureus (18 h) was more than 64 µg/mL. In the data set on E. coli (18 h), the “MIC against E. coli” value was more than 64 µg/mL.

Take `CC[C@H](C)[C@H](NC(=O)[C@H](Cc1cccc2ccccc12)NC(=O)[C@H](CCCNC(=N)N)NC(=O)[C@@H](NC(=O)[C@H](Cc1cccc2ccccc12)NC(=O)[C@H](CCCNC(=N)N)NC(=O)[C@H](CCCNC(=N)N)NC(=O)[C@H](Cc1cccc2ccccc12)NC(=O)[C@H](CCCCN)NC(C)=O)C(C)C)C(N)=O` [Pac-627 L, K (1-Nal) R R (1-Nal) V R (1-Nal) I] (Ac-K[1Nal]RR[1Nal]VR[1Nal]I-NH2): the “MIC against S. aureus” value against S. aureus and against S. aureus (18 h) was 4 µg/mL (≈ 2.74 µM) each time. Also, the “MIC against E. coli” value in the data set on E. coli and in the data set with E. coli (18 h) was 4 µg/mL (≈ 2.74 µM) in each case.

With `CC[C@H](C)[C@@H]1NC(=O)[C@H](CCCCN)NC(=O)[C@H](Cc2ccc3ccccc3c2)NC(=O)[C@H](CCCNC(=N)N)NC(=O)[C@H](CCCNC(=N)N)NC(=O)[C@H](Cc2ccc3ccccc3c2)NC(=O)[C@H](C(C)C)NC(=O)[C@H](CCCNC(=N)N)NC(=O)[C@H](Cc2ccc3ccccc3c2)NC1=O` [Pac-626 C, I (2-Nal) R V (2-Nal) R R (2-Nal) K] (cyclo(I[2Nal]RV[2Nal]RR[2Nal]K); ring closure inferred), the “MIC against S. aureus” value in the data set with S. aureus (18 h) was 64 µg/mL (≈ 45.7 µM). Besides, the “MIC against E. coli” value against E. coli (18 h) worked out at 64 µg/mL (≈ 45.7 µM).

On to `CC[C@H](C)[C@H](NC(=O)[C@H](Cc1ccc2ccccc2c1)NC(=O)[C@H](CCCNC(=N)N)NC(=O)[C@@H](NC(=O)[C@H](Cc1ccc2ccccc2c1)NC(=O)[C@H](CCCNC(=N)N)NC(=O)[C@@H](NC(=O)[C@H](Cc1ccc2ccccc2c1)NC(=O)[C@H](CCCCN)NC(C)=O)[C@@H](C)CC)C(C)C)C(N)=O` [Pac-629, Ac-K(2-Nal) IR(2-Nal) VR(2-Nal) I-NH2] (Ac-K[2Nal]IR[2Nal]VR[2Nal]I-NH2), for which the “MIC against S. aureus” value against S. aureus amounted to 4 µg/mL (≈ 2.82 µM). For the same compound, the “MIC against E. coli” value with E. coli came to 8 µg/mL (≈ 5.65 µM).

Regarding `CC[C@H](C)[C@H](NC(=O)[C@H](Cc1ccc2ccccc2c1)NC(=O)[C@H](CCCCN)NC(=O)[C@@H](NC(=O)[C@H](Cc1ccc2ccccc2c1)NC(=O)[C@H](CCCCN)NC(=O)[C@@H](NC(=O)[C@H](Cc1ccc2ccccc2c1)NC(=O)[C@H](CCCCN)NC(C)=O)[C@@H](C)CC)[C@@H](C)CC)C(N)=O` [Pac-621, Ac-K(2-Nal) IK(2-Nal) IK(2-Nal) I-NH2] (Ac-K[2Nal]IK[2Nal]IK[2Nal]I-NH2), the “MIC against S. aureus” value in the data set with S. aureus amounted to 16 µg/mL (≈ 11.6 µM). In the data set with E. coli, the “MIC against E. coli” value turned out to be 8 µg/mL (≈ 5.82 µM).

Consider `CC[C@H](C)[C@@H]1NC(=O)[C@H](Cc2ccc3ccccc3c2)NC(=O)[C@H](CCCNC(=N)N)NC(=O)[C@H](CCCNC(=N)N)NC(=O)[C@H](Cc2ccc3ccccc3c2)NC(=O)[C@H](CCCCN)NC1=O` [Pac-401 C, K (2-Nal) R R (2-Nal) I] (cyclo(K[2Nal]RR[2Nal]I); ring closure inferred), for which the “MIC against S. aureus” value in the data set on S. aureus (18 h) is more than 64 µg/mL. Also, in the data set on E. coli (18 h), the “MIC against E. coli” value was more than 64 µg/mL.

On to `CC[C@H](C)[C@@H]1NC(=O)[C@H](Cc2ccc(-c3ccccc3)cc2)NC(=O)[C@H](CCCNC(=N)N)NC(=O)[C@H](C(C)C)NC(=O)[C@H](Cc2ccc(-c3ccccc3)cc2)NC(=O)[C@H](CCCNC(=N)N)NC(=O)[C@H](CCCNC(=N)N)NC(=O)[C@H](Cc2ccc(-c3ccccc3)cc2)NC(=O)[C@H](CCCCN)NC1=O` [Pac-628 C, K (Bip) R R (Bip) V R (Bip) I] (cyclo(K[Bip]RR[Bip]VR[Bip]I); ring closure inferred), for which the “MIC against S. aureus” value in the data set with S. aureus (18 h) worked out at 64 µg/mL (≈ 43.3 µM). Besides, the “MIC against E. coli” value in the data set on E. coli (18 h) is 64 µg/mL (≈ 43.3 µM).

In the case of `CC(=O)N[C@@H](CCCCN)C(=O)N[C@@H](Cc1ccc2ccccc2c1)C(=O)N[C@@H](CCCNC(=N)N)C(=O)N[C@@H](CCCNC(=N)N)C(=O)N[C@@H](Cc1ccc2ccccc2c1)C(=O)N[C@H](C(N)=O)C(C)C` [Pac-402 L, K (2-Nal) R R (2-Nal) V] (Ac-K[2Nal]RR[2Nal]V-NH2; N-terminus and C-terminus assumed), the “MIC against S. aureus” value in the data set with S. aureus (18 h) amounted to 16 µg/mL (≈ 16.1 µM). Moreover, in the data set with E. coli (18 h), the “MIC against E. coli” value amounted to 24 µg/mL (≈ 24.2 µM). For the same compound, the “P50 (concentration of peptide leading to 50% of the maximum increase in NPN uptake)” value in data set [2] was 16 µg/mL.

`CC[C@H](C)[C@H](NC(=O)[C@H](Cc1ccc(-c2ccccc2)cc1)NC(=O)[C@H](CCCNC(=N)N)NC(=O)[C@@H](NC(=O)[C@H](Cc1ccc(-c2ccccc2)cc1)NC(=O)[C@H](CCCNC(=N)N)NC(=O)[C@H](CCCNC(=N)N)NC(=O)[C@H](Cc1ccc(-c2ccccc2)cc1)NC(=O)[C@H](CCCCN)NC(C)=O)C(C)C)C(N)=O` [Pac-628 L, K (Bip) R R (Bip) V R (Bip) I] (Ac-K[Bip]RR[Bip]VR[Bip]I-NH2): the “MIC against S. aureus” value against S. aureus and against S. aureus (18 h) was 4 µg/mL (≈ 2.6 µM) in each case. The “MIC against E. coli” value against E. coli and against E. coli (18 h) was 2 µg/mL (≈ 1.3 µM) throughout. Further, the “P50 (concentration of peptide leading to 50% of the maximum increase in NPN uptake)” value in data set [2] worked out at 4 µg/mL.

`CC(C)[C@@H]1NC(=O)[C@H](Cc2ccc3ccccc3c2)NC(=O)[C@H](CCCNC(=N)N)NC(=O)[C@H](CCCNC(=N)N)NC(=O)[C@H](Cc2ccc3ccccc3c2)NC(=O)[C@H](CCCCN)NC1=O` [Pac-402 C, K (2-Nal) R R (2-Nal) V] (cyclo(K[2Nal]RR[2Nal]V); ring closure inferred): in the data set on S. aureus (18 h), the “MIC against S. aureus” value is more than 64 µg/mL. The “MIC against E. coli” value against E. coli (18 h) was more than 64 µg/mL.

On to `CC[C@H](C)[C@@H]1NC(=O)[C@H](Cc2ccc3ccccc3c2)NC(=O)[C@H](CCCNC(=N)N)NC(=O)[C@H](C(C)C)NC(=O)[C@H](Cc2ccc3ccccc3c2)NC(=O)[C@H](CCCNC(=N)N)NC(=O)[C@H](CCCNC(=N)N)NC(=O)[C@H](Cc2ccc3ccccc3c2)NC(=O)[C@H](CCCCN)NC1=O` [Pac-625 C, K (2-Nal) R R (2-Nal) V R (2-Nal) I] (cyclo(K[2Nal]RR[2Nal]VR[2Nal]I); ring closure inferred), for which the “MIC against S. aureus” value in the data set on S. aureus (18 h) came out at 64 µg/mL (≈ 45.7 µM). The “MIC against E. coli” value with E. coli (18 h) was determined as 64 µg/mL (≈ 45.7 µM).

Take `CC[C@H](C)[C@H](NC(=O)[C@H](Cc1ccc2ccccc2c1)NC(=O)[C@H](CCCNC(=N)N)NC(=O)[C@H](CCCNC(=N)N)NC(=O)[C@H](Cc1ccc2ccccc2c1)NC(=O)[C@H](CCCCN)NC(C)=O)C(N)=O` [Pac-401 L, K (2-Nal) R R (2-Nal) I] (Ac-K[2Nal]RR[2Nal]I-NH2): in the data set with S. aureus (18 h), the “MIC against S. aureus” value was found to be 8 µg/mL (≈ 7.94 µM). Moreover, the “MIC against E. coli” value against E. coli (18 h) stood at 16 µg/mL (≈ 15.9 µM). Further, in data set [1], the “% lysis @ 5 μg/ml” value is recorded as 0.85%, the “% lysis @ 50 μg/ml” value was 6.8% and the “% lysis @ 500 μg/ml” value was 14%.
